{
  "source": "patent US8637688B2",
  "about": "“Topical dosage form comprising tri-substituted glycerol compounds” (priority 2006, dated 2014)",
  "origin": "cited, not measured here",
  "key": {"[1]": {"test_system": "cutaneous metastases from breast cancer", "details": "6% solution, topical, average dose rate 0.3 mg/cm^2 skin area"}, "[2]": {"details": "6% solution, topical"}},
  "data": [
    {"compound": "CCCCCCCCCCCCCCCCOP(=O)([O-])OCC[N+](C)(C)C", "note": "[miltefosine, hexadecylphosphocholine]", "values": [
      {"measurement": "patients treated who showed a beneficial response to the medicament", "setting": "[1]", "result": "about one third"},
      {"measurement": "skin irritations (redness, itching, cauterization or the like) shortly upon administration", "setting": "[2]", "result": "significant skin irritations"}
    ]}
  ]
}
